In US20240208896A1, “PRODRUGS OF KV7 CHANNEL OPENERS” (Xyzagen, Inc., priority 2021, published 2024):
In brackets after ≈: the same amount, converted by molar mass. Where two headings read alike, the source gives them in different places.

Key:
[1] = known value, cited from earlier work
[2] = Acid and organic solution stability, HPLC-UV 250 nm; conditions: 5 mg/mL
Description: An HPLC-UV Vis method was developed using 0.1% Formic acid in water as mobile phase A and 0.1% Formic acid in acetonitrile as mobile Phase B. A gradient method was developed ramping from 10% A to 90% B over 8 minutes and then returning to 10% A at 8.5 minutes on a 4.6×50 mm Zorbax C-18 column. Injections of 10 uL of stability solutions were injected for analyte detection.
[…] Aliquots were collected at serial time points and then diluted to a nominal concentration of 100 ug/mL for injection to the HPLC and 250 nm monitored by the diode array detector. Data at approximately 10 days is presented.
Aliquots were collected at serial time points and then diluted to a nominal concentration of 100 ug/mL for injection to the HPLC and 250 nm monitored by the diode array detector.
(§1) It was also evaluated at 2 N HCl at 37° C. Aliquots were collected at serial time points and then diluted to a nominal concentration of 100 ug/mL for injection to the HPLC and 250 nm monitored by the diode array detector.
as §1, §1, §1

Human Kv7.2/7.3 = Human Kv7.2/7.3 (Homo sapiens, UniProt O43525+O43526); assay: In vitro screen of Kv7.2/7.3 voltage gated potassium channels (FluxOR, FLIPR); assay type: cell-based
Description: Human Kv7.2/7.3 cells are harvested, counted and seeded in black, clear-bottomed 96 well plates at a density of 50,000 cells per well in 100 μl volume and incubated overnight. The following day, media was removed and 40 μl of loading buffer (4.895 mL HBSS:HEPES, 50 μL probenecid, 50 μL power load, 5 μl FluxOR reagent) was added and incubated at room temperature for 30 minutes. After incubation loading buffer was removed and 40 μl of assay buffer added (4.45 ml HBSS:HEPES, 500 μl FluxOR assay buffer and 50 μL probenecid) and incubated for 10 minutes.

[3] = Pharmacokinetics of ezogabine prodrugs in rat (IV, IM, PO)
Description: (§2) Blood was diluted by 10% with these stabilizers.
(§3) Extraction of the molecules was conducted by taking a 50 uL aliquot of plasma and adding 200 uL of acetonitrile containing 200 ng/mL tolbutamide as the internal standard. Samples were precipitated in a 96 well plate, centrifuges and an aliquot transferred to a new plate, dried down under heat and nitrogen and then reconstituted in the initial mobile phase conditions of the LC-MS/MS method. […] A standard curve was prepared from 5000 ng/mL to 1 ng/mL for each analyte. Concentration data from the bioanalytical run was analyzed by Phoenix Winnonlin version 8 for noncompartmental PK analysis, plotting of concentration time curves and tabulation of PK parameters.
150 uL of blood were collected at predesignated time points. At completion of the study animals were asphyxiated by carbon dioxide gas and exsanguinated for euthanasia.

[4] = in solvent, exposed to light; known; cited from earlier work
[5] = assay type: physicochemical; conditions: for % Conversion to dimer / Concentration of dimer: 8 mg/mL in SGF, 38° C.
From the text: The structure of the dimer is presented.

[6] = Pharmacokinetics of ezogabine prodrugs in mouse (SC, PO); conditions: male mice, PO 20 mg/kg, analyte Cmpd 1
Description: as §2
as §3, with “noncompartmental sparse sampling” for “noncompartmental”
Animals were asphyxiated by carbon dioxide gas, blood was collected by cardiac stick and they were euthanized by cervical dislocation.

[7] = patients receiving ezogabine (POTIGA); Potiga label; cited from earlier work
[8] = Rat PK at equimolar dose to Ezogabine (20 mg/kg) in 0.5% methylcellulose; conditions: male cannulated rats; equimolar to Ezogabine 20 mg/kg; 0.5% methylcellulose; analyte the dosed prodrug
Description: (§4) Blood samples were collected at the same time points over 24 hours to generate a concentration time profile. Two male rats were dosed per group. Plasma samples were analyzed by LC/MS/MS and the resulting concentration time profiles and PK parameters are provided.
as §4, §4

[9] = Benchtop solvent stability exposed to light, HPLC-UV 230 nm, up to 7 days; assay type: physicochemical; conditions: over 4 days
Description: Compounds in solvent were left on the benchtop exposed to light for up to 7 days since it is known that Compound 1 will degrade with light within 3-7 days.
Stability was assessed by taking an aliquot from the solubility vials at each test day. A single replicate was injected for each test condition.
Samples were injected onto an HPLC system with an aqueous mobile phase and acetonitrile organic phase and compounds were separated on a C8 50×2 mm column. Wavelength 230 nm was monitored for absorption and integrated for peak area while the mass spectrometer was used to confirm mass. Samples were tested on Day 1 and on subsequent days through Day 7.

[10] = system: MES induced seizures in Rat; assay: SD rat MES test after IM administration; assay type: in vivo; conditions: SD rats, IM 75 mg/kg
Description: All treatments were at 0.083, 0.25, 0.5, 1, 2, 4, and 8 hours prior to the administration of MES test, where 6 seconds where 6 seconds without a seizure was considered protected.

[11] = Solvent solubility assessment by visual inspection; assay type: physicochemical
Description: Compounds were weighed and placed into a 4 dram vials and solvents were added to the target concentration. Compounds were vortex and visually inspected for particulates and considered soluble if clear upon visual inspection with and without magnification. Solubility was reported as either greater than (>) or less than (<) from the prepared concentration. […] It was evaluated at 10 mg/mL in 0.1 N NaCl and was freely soluble. It was evaluate at 1 mg/mL in 0.1 N NaOH and 0.1 N Na2HPO4 and was freely soluble. In ethanol and methanol it was freely soluble at a concentration of 75 mg/mL. […] It was freely soluble at 75 mg/mL in methanol and ethanol. It was soluble at 1 mg/mL in 1N HCl.

[12] = system: formalin inflammatory model; assay: Formalin inflammatory pain model (hind paw flick/lick); assay type: in vivo; conditions: male CD-1 mouse; 100 mg/kg SC 30 minutes before 5% formalin; both phases (0-10 and 15-40 min)
Description: Compound 4 was assessed in the […] formalin inflammatory model. The number of flicks/licks of a male CD-1 mouse in the acute phase 0-10 minute and the inflammatory phase from 15-40 min after intraplantar administration of 50 μL of 5% formalin was recorded. […] Data is presented over the duration of the observation periods in 2 minute bins.

[13] = 1000 ng/mL
Description: Plasma was collected by the biomaterial vendor and kept frozen at −20° C.
The samples were analyzed by HPLC separation and mass spectrometry detection for prodrug amount, relative to a baseline time 0 control sample. Triplicate samples were generated at each time point and the peak area response was averaged and converted to a percent of baseline control.

Human Kv7.2/7.3, sequence (O43526 whole entry): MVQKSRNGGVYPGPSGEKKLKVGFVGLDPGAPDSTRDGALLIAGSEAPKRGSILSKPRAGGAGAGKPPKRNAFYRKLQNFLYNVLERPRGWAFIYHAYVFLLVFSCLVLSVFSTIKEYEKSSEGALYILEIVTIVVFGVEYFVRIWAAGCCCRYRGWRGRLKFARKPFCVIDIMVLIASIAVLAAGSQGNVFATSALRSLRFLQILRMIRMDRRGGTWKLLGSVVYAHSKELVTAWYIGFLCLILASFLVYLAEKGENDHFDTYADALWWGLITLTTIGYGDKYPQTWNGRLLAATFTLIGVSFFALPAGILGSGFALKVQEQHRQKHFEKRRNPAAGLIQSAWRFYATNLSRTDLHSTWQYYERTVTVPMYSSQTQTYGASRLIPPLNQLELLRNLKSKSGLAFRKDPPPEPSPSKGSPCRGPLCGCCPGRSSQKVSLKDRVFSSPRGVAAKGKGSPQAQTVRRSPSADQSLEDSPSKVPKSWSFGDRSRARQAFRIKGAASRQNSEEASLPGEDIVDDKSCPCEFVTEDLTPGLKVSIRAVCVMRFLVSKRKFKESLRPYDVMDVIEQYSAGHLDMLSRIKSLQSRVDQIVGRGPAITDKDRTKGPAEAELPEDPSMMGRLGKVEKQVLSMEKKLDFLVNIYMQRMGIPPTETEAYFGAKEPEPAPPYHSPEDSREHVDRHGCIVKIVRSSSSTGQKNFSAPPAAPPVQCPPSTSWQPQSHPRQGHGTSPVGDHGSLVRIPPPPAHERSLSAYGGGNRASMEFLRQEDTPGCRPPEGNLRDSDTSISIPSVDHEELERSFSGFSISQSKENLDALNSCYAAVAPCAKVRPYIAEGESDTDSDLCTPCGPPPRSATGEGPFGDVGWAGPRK
Human Kv7.2/7.3, sequence (O43525 whole entry): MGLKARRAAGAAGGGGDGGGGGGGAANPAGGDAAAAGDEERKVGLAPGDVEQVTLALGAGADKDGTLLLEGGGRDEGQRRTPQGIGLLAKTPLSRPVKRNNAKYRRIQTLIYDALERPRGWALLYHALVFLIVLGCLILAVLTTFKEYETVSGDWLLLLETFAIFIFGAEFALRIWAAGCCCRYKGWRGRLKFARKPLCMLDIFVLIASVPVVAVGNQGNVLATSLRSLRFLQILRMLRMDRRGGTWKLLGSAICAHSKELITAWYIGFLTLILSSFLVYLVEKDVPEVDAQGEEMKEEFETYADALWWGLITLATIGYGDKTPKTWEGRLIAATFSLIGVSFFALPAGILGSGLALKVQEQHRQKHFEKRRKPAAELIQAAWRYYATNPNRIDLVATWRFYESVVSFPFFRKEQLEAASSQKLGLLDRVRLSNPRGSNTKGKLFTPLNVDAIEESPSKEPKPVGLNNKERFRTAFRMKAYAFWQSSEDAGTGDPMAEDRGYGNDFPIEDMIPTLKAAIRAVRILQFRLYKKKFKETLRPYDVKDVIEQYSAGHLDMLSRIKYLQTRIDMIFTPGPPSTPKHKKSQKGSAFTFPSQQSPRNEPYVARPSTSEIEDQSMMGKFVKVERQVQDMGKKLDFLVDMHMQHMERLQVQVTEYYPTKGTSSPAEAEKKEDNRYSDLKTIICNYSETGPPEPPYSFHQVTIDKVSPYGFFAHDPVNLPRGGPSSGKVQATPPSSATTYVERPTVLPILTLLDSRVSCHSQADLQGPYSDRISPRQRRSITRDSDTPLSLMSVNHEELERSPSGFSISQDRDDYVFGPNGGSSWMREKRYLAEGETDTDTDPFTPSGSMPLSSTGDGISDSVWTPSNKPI

## CCOC(=O)Nc1ccc(NCc2ccc(F)cc2)cc1N [Compound 1, Ezogabine]
[1]; 0.1N NaCl
  Solubility: 0.04 mg/mL (≈ 0.132 mM)
[1]; 0.1N NaOH
  Solubility: 0.04 mg/mL (≈ 0.132 mM)
[1]; Ethanol
  Solubility: 20 mg/mL (≈ 65.9 mM)
[1]; Methanol
  Solubility: 54 mg/mL (≈ 178 mM)
[1]; Water
  Solubility: 0.05 mg/mL (≈ 0.165 mM)
[1]; listed as 0.1 Na2HPO4, determined in 0.1N K2HPO4
  Solubility: 0.18 mg/mL (≈ 0.593 mM)
[2]; 0.1N HCl, room temp., normal light, 267 h
  % Remaining: 50.7%
[2]; 1N HCl, room temp., normal light, 267 h
  % Remaining: 68.2%
[2]; Acetonitrile, room temp., normal light, 219 h
  % Remaining: 44.9%
[2]; Methanol, room temp., normal light, 267 h
  % Remaining: 41.3%
[2]; acid solutions, room temperature
  Colour of stability solution: turning light purple (indicating degradation) by Day 2
[2]; organic solvents, room temperature
  Colour of stability solution: did not begin turning purple until Day 7
Human Kv7.2/7.3
  EC50: 1.6 µM
[3]; male SD rat, PO 20 mg/kg, analyte Cmpd 1
  Cmax/D: 44.8 ng/mL/mg/kg
[3]; male SD rat, PO 20 mg/kg, analyte Cmpd 1, 24 h
  AUClast/D: 280 ng·h/mL/mg/kg
[4]
  Time to degradation with light: 3 to 7 days
[5]; Time 0
  % Conversion to dimer: 0%
  Concentration of dimer: 0.00 ng/mL
[5]; Time 1 h
  % Conversion to dimer: 0.250%
  Concentration of dimer: 19.5 ng/mL
[5]; Time 4 h
  % Conversion to dimer: 7.95%
  Concentration of dimer: 623 ng/mL
[5]; Time 8 h
  % Conversion to dimer: 25.2%
  Concentration of dimer: 1980 ng/mL
[5]; low pH (1 N HCl) and simulated gastric fluid
  Stability at low pH: degrades and forms a chromophore dimer
[6]
  Cmax/D: 148 ng/mL/mg/kg
[6]; 6 h
  AUClast/D: 190 ng·h/mL/mg/kg
[7]
  Adverse reaction: abnormal coordination: 7%
  Adverse reaction: aphasia: 4%
  Adverse reaction: asthenia: 5%
  Adverse reaction: balance disorder: 4%
  Adverse reaction: blurred vision: 5%
  Adverse reaction: confusional state: 9%
  Adverse reaction: diplopia: 7%
  Adverse reaction: disturbance in attention: 6%
  Adverse reaction: dizziness: 23%
  Adverse reaction: dysarthria: 4%
  Adverse reaction: fatigue: 15%
  Adverse reaction: gait disturbance: 4%
  Adverse reaction: memory impairment: 6%
  Adverse reaction: somnolence: 22%
  Adverse reaction: tremor: 8%
  Adverse reaction: vertigo: 8%

## CCOC(=O)Nc1ccc(NCc2ccc(F)cc2)cc1NC(=O)[C@@H](N)CCCCN [Compound 4]
[8]
  AUClast/D: 6.26 ng·h/mL/mg/kg
  Cmax/D: 2.34 ng/mL/mg/kg
[2]
  Colour of stability solution: remained clear and colorless through Day 18
[2]; 0.1N HCl, room temp., normal light, 269 h
  Ezogabine Area (formed from the prodrug): 0 mAU
[2]; 1N HCl, room temp., normal light, 269 h
  Ezogabine Area (formed from the prodrug): 0 mAU
[2]; 2N HCl 37C, 436 h
  Ezogabine Area (formed from the prodrug): 167 mAU
[2]; 2N HCl, room temp., normal light, 269 h
  Ezogabine Area (formed from the prodrug): 38 mAU
[2]; Methanol, room temp., normal light, 437 h
  Ezogabine Area (formed from the prodrug): 0 mAU
[2]; PBS, room temp., normal light, 435 h
  Ezogabine Area (formed from the prodrug): 0 mAU
[2]; acidic solutions and organic solvents, up to 3 weeks
  Degradation / conversion to ezogabine in solution: very little degradation to ezogabine
[2]; 437 h
  % Remaining: 98.5%
[2]; buffer, 435 h
  % Remaining: 99.2%
[2]; buffer, 436 h
  % Remaining: 94.9%
[9]; 0.1N NaOH
  Reduction in peak area: > 50%
[9]; all test conditions except 0.1 N NaOH
  Stability in solvent: appears stable
Human Kv7.2/7.3; Human Kv7.2/7.3 cells, FluxOR fluorescence, 0.03 to 30 μM
  Activity against the primary target of Kv7.2/7.3: inactive
[3]; rat, in vivo, po
  Exposure of the prodrug itself in systemic circulation: slightly more detectable
[10]; 2 through 8 hours post dose
  Protection from MES induced seizures: fully protected
[10]; 1 h post dose
  Protection from MES induced seizures: almost fully protected
[11]; 0.1N HCl
  Solubility: >20 mg/mL
[11]; 0.1 N Na2HPO4, aqueous buffer, thermodynamic from solid, read-out: Solubility (freely soluble at tested concentration)
  Solubility: > 1 mg/mL
[11]; 0.1N NaCl
  Solubility: >10 mg/mL
[11]; 0.1 N NaCl, saline or isotonic, thermodynamic from solid, read-out: Solubility (freely soluble at tested concentration)
  Solubility: > 10 mg/mL
[11]; 0.1N NaOH
  Solubility: >1 mg/mL
[11]; 0.1 N NaOH, aqueous buffer, thermodynamic from solid, read-out: Solubility (freely soluble at tested concentration)
  Solubility: > 1 mg/mL
[11]; 0.1 Na2HPO4
  Solubility: >1 mg/mL
[11]; Ethanol
  Solubility: >75 mg/mL
[11]; Methanol
  Solubility: >75 mg/mL
[11]; Water
  Solubility: >20 mg/mL
[11]; ethanol, organic solvent or mixture, thermodynamic from solid, read-out: Solubility (freely soluble at tested concentration)
  Solubility: > 75 mg/mL
[11]; methanol, organic solvent or mixture, thermodynamic from solid, read-out: Solubility (freely soluble at tested concentration)
  Solubility: > 75 mg/mL
[11]; saline or isotonic, 0.9% w/v NaCl, for in vivo studies, read-out: Solubility (formulated as freely soluble solution)
  Solubility: ≥ 150 mg/mL
[11]; simulated gastric fluid, thermodynamic from solid, 0.1N HCl, read-out: Solubility (freely soluble at tested concentration)
  Solubility: > 20 mg/mL
[11]; water, thermodynamic from solid, read-out: Solubility (freely soluble at tested concentration)
  Solubility: > 20 mg/mL
[12]
  Reduction in behavioral response (flicks/licks) compared to vehicle: 50%
[13]; mouse
  Time by which prodrug is degraded in plasma: ≤ 6 h
[13]; rat, 6 h
  Plasma stability: stable through 6 hours
[13]; rat, plasma, 23 h
  Percent remaining in plasma: below 50%
